According to patent publication US20250255867A1 (Kadmon Corporation, LLC, priority 2022, published 2025):
Values joined by “and” are separate entries in the source; they are usually repeats but may differ in a detail not shown here. Equal values may be shown once. Read-outs that look alike come from different tables or passages of the source.

CC(C)NC(=O)COc1cccc(-c2nc(Nc3ccc4[nH]ncc4c3)c3ccccc3n2)c1 [Belumosudil, 2-{3-[4-(1H-indazol-5-ylamino)-2-quinazolinyl]phenoxy}-N-(propan-2-yl) acetamide]
Thrombocytosis: # Events (Cohort 3 400 mg QD): 0
Thrombocytosis: Affected/At Risk (Cohort 3 400 mg QD): 0/21
Thrombocytosis: Affected/At Risk (%) (Cohort 3 400 mg QD): (0%)
Tinea pedis: # Events (Cohort 3 400 mg QD): 0
Tinea pedis: Affected/At Risk (Cohort 3 400 mg QD): 0/21
Tinea pedis: Affected/At Risk (%) (Cohort 3 400 mg QD): (0%)
Tooth fracture: # Events (Cohort 3 400 mg QD): 0
Tooth fracture: Affected/At Risk (Cohort 3 400 mg QD): 0/21
Tooth fracture: Affected/At Risk (%) (Cohort 3 400 mg QD): (0%)
Total Other Adverse Events: Affected/At Risk (Cohort 3 400 mg QD): 19/21
Total Other Adverse Events: Affected/At Risk (%) (Cohort 3 400 mg QD): (90.48%)
Transfusion reaction: # Events (Cohort 3 400 mg QD): 0
Transfusion reaction: Affected/At Risk (Cohort 3 400 mg QD): 0/21
Transfusion reaction: Affected/At Risk (%) (Cohort 3 400 mg QD): (0%)
Tremor: # Events (Cohort 3 400 mg QD): 4
Tremor: Affected/At Risk (Cohort 3 400 mg QD): 3/21
Tremor: Affected/At Risk (%) (Cohort 3 400 mg QD): (14.29%)
Type 2 diabetes mellitus: # Events (Cohort 3 400 mg QD): 0
Type 2 diabetes mellitus: Affected/At Risk (Cohort 3 400 mg QD): 0/21
Type 2 diabetes mellitus: Affected/At Risk (%) (Cohort 3 400 mg QD): (0%)
Ulcerative keratitis: # Events (Cohort 3 400 mg QD): 0
Ulcerative keratitis: Affected/At Risk (Cohort 3 400 mg QD): 0/21
Ulcerative keratitis: Affected/At Risk (%) (Cohort 3 400 mg QD): (0%)
Upper respiratory tract infection: # Events (Cohort 3 400 mg QD): 9
Upper respiratory tract infection: Affected/At Risk (Cohort 3 400 mg QD): 7/21
Upper respiratory tract infection: Affected/At Risk (%) (Cohort 3 400 mg QD): (33.33%)
Upper-airway cough syndrome: # Events (Cohort 3 400 mg QD): 1
Upper-airway cough syndrome: Affected/At Risk (Cohort 3 400 mg QD): 1/21
Upper-airway cough syndrome: Affected/At Risk (%) (Cohort 3 400 mg QD): (4.76%)
Urinary retention: # Events (Cohort 3 400 mg QD): 0
Urinary retention: Affected/At Risk (Cohort 3 400 mg QD): 0/21
Urinary retention: Affected/At Risk (%) (Cohort 3 400 mg QD): (0%)
Urinary tract infection: # Events (Cohort 3 400 mg QD): 0
Urinary tract infection: Affected/At Risk (Cohort 3 400 mg QD): 0/21
Urinary tract infection: Affected/At Risk (%) (Cohort 3 400 mg QD): (0%)
Urinary tract pain: # Events (Cohort 3 400 mg QD): 1
Urinary tract pain: Affected/At Risk (Cohort 3 400 mg QD): 1/21
Urinary tract pain: Affected/At Risk (%) (Cohort 3 400 mg QD): (4.76%)
Urine output decreased: # Events (Cohort 3 400 mg QD): 0
Urine output decreased: Affected/At Risk (Cohort 3 400 mg QD): 0/21
Urine output decreased: Affected/At Risk (%) (Cohort 3 400 mg QD): (0%)
Vascular access complication: # Events (Cohort 3 400 mg QD): 0
Vascular access complication: Affected/At Risk (Cohort 3 400 mg QD): 0/21
Vascular access complication: Affected/At Risk (%) (Cohort 3 400 mg QD): (0%)
Vertigo: # Events (Cohort 3 400 mg QD): 0
Vertigo: Affected/At Risk (Cohort 3 400 mg QD): 0/21
Vertigo: Affected/At Risk (%) (Cohort 3 400 mg QD): (0%)
Vision blurred: # Events (Cohort 3 400 mg QD): 4
Vision blurred: Affected/At Risk (Cohort 3 400 mg QD): 4/21
Vision blurred: Affected/At Risk (%) (Cohort 3 400 mg QD): (19.05%)
Vomiting: # Events (Cohort 3 400 mg QD): 4
Vomiting: Affected/At Risk (Cohort 3 400 mg QD): 4/21
Vomiting: Affected/At Risk (%) (Cohort 3 400 mg QD): (19.05%)
Weight decreased: # Events (Cohort 3 400 mg QD): 4
Weight decreased: Affected/At Risk (Cohort 3 400 mg QD): 2/21
Weight decreased: Affected/At Risk (%) (Cohort 3 400 mg QD): (9.52%)
Weight increased: # Events (Cohort 3 400 mg QD): 4
Weight increased: Affected/At Risk (Cohort 3 400 mg QD): 1/21
Weight increased: Affected/At Risk (%) (Cohort 3 400 mg QD): (4.76%)
White blood cell count decreased: # Events (Cohort 3 400 mg QD): 2
White blood cell count decreased: Affected/At Risk (Cohort 3 400 mg QD): 1/21
White blood cell count decreased: Affected/At Risk (%) (Cohort 3 400 mg QD): (4.76%)
ALT/AST increased all grade, No. (Cohort 3 400 mg QD n=21): 2
ALT/AST increased grade ≥3, No. (Cohort 3 400 mg QD n=21): 0
Anemia grade ≥3, No. (Cohort 3 400 mg QD n=21): 0
Any AE, No. of patients (Cohort 3 400 mg QD n=21): 16
Cough all grade, No. (Cohort 3 400 mg QD n=21): 7
Death, No. (Cohort 3 400 mg QD n=21): 2
Diarrhea all grade, No. (Cohort 3 400 mg QD n=21): 7
Drug-related AE, No. (Cohort 3 400 mg QD n=21): 14
Drug-related SAE, No. (Cohort 3 400 mg QD n=21): 0
Dyspnea all grade, No. (Cohort 3 400 mg QD n=21): 7
Dyspnea grade ≥3, No. (Cohort 3 400 mg QD n=21): 4
Fatigue all grade, No. (Cohort 3 400 mg QD n=21): 9
Grade ≥3 AE, No. (Cohort 3 400 mg QD n=21): 14
Headache all grade, No. (Cohort 3 400 mg QD n=21): 6
Hyperglycemia grade ≥3, No. (Cohort 3 400 mg QD n=21): 2
Hypertension all grade, No. (Cohort 3 400 mg QD n=21): 4
Hypoxia grade ≥3, No. (Cohort 3 400 mg QD n=21): 2
Lung infection or pneumonia grade ≥3, No. (Cohort 3 400 mg QD n=21): 2
Nausea all grade, No. (Cohort 3 400 mg QD n=21): 8
Peripheral edema all grade, No. (Cohort 3 400 mg QD n=21): 6
SAE, No. (Cohort 3 400 mg QD n=21): 12
URI all grade, No. (Cohort 3 400 mg QD n=21): 7
Cytomegalovirus (CMV) infection or reactivation (Example 1): no reported CMV infection or reactivation
Patients who discontinued because of potentially drug-related AEs (Example 1): Three
Cytomegalovirus (CMV) infection or reactivation (Example 1, listed as belumosudil): No cases
AE cough, patients (Total N=54): 22%
AE diarrhea, patients (Total N=54): 33%
AE dyspnea, patients (Total N=54): 30%
AE fatigue, patients (Total N=54): 33%
AE headache, patients (Total N=54): 24%
AE hypertension, patients (Total N=54): 20%
AE increased liver function tests, patients (Total N=54): 33%
AE nausea, patients (Total N=54): 33%
AE peripheral edema, patients (Total N=54): 24%
AE upper respiratory infection, patients (Total N=54): 46%
ALT/AST increased all grade, No. (Total N=54): 18
ALT/AST increased grade ≥3, No. (Total N=54): 4
Anemia grade ≥3, No. (Total N=54): 3
Any AE, No. of patients (Total N=54): 53
Cough all grade, No. (Total N=54): 12
Death, No. (Total N=54): 2
Diarrhea all grade, No. (Total N=54): 18
Drug-related AE, No. (Total N=54): 30
Drug-related SAE, No. (Total N=54): 0
Dyspnea all grade, No. (Total N=54): 16
Dyspnea grade ≥3, No. (Total N=54): 7
Fatigue all grade, No. (Total N=54): 18
Grade ≥3 AE, No. (Total N=54): 33
Grade ≥3 AE, patients (Total N=54): Sixty-one
Grade ≥3 cytopenias, patients (Total N=54): 4%
Grade ≥3 dyspnea, patients (Total N=54): 13%
Grade ≥3 hyperglycemia, patients (Total N=54): 7%
Grade ≥3 hypoxia, patients (Total N=54): 7%
Grade ≥3 increased liver function tests, patients (Total N=54): 7%
Headache all grade, No. (Total N=54): 13
Hyperglycemia grade ≥3, No. (Total N=54): 4
Hypertension all grade, No. (Total N=54): 11
Hypoxia grade ≥3, No. (Total N=54): 4
Lung infection or pneumonia grade ≥3, No. (Total N=54): 5
Nausea all grade, No. (Total N=54): 18
Peripheral edema all grade, No. (Total N=54): 13
SAE, No. (Total N=54): 23
Serious AE dyspnea, patients (Total N=54): 7%
Serious AE hypoxia, patients (Total N=54): 4%
Serious AE influenza-like illness, patients (Total N=54): 4%
Serious AE lung infection, patients (Total N=54): 6%
Serious AEs, patients (Total N=54): 43%
URI all grade, No. (Total N=54): 25
Patients with dose interruptions (all): 41%
Patients with dose reductions (all): 9%
Patients who died during the study (all in cohort 3, none attributed to belumosudil): Four
Eyelid margin crusting: Affected/At Risk (in vivo): 1/17 and 0/16 and 0/21
Median relative dose intensity (overall): 98%
Median duration of dose interruption (range, 2-39 days): 10 days
Median duration of dose reduction (range, 21-859 days): 97 days
